In ChEMBL document CHEMBL5726327, “Kinase inhibitors” (2017) one finds IC50 data, which are given here for two molecules.

Where only a bound is given, the exact number is not on record here.

The target in this assay is Glycogen synthase kinase-3 alpha (Homo sapiens, UniProt P49840). Description: Enzyme Inhibition Assay: The inhibitory activities of compounds of the invention against the GSK 3α enzyme isoform (Invitrogen), are evaluated by determining the level of activation/phosphorylation of the target peptide. The GSK3-α protein (500 ng/mL, 2.5 μL) is mixed with the test compound (2.5 μL at either 4 μg/mL, 0.4 μg/mL, 0.04 μg/mL, or 0.004 μg/mL) for 2 hr at RT. The FRET peptide (8 μM, 2.5 μL), which is a phosphorylation target for GSK3α, and ATP (40 μM, 2.5 μL) are then added to the enzyme/compound mixture and the resulting mixture incubated for 1 hr. Development reagent (protease, 5 μL) is added for 1 hr prior to detection in a fluorescence microplate reader (Varioskan® Flash, ThermoFisher Scientific).In all cases, the site-specific protease cleaves non-phosphorylated peptide only and eliminates the FRET signal. Phosphorylation levels of each reaction are calculated using the ratio of coumarin emission (donor) over fluorescein emission (acceptor), for which high ratios indicate […] phosphorylation levels.
Glycogen synthase kinase-3 alpha, sequence (P49840 whole entry, canonical isoform): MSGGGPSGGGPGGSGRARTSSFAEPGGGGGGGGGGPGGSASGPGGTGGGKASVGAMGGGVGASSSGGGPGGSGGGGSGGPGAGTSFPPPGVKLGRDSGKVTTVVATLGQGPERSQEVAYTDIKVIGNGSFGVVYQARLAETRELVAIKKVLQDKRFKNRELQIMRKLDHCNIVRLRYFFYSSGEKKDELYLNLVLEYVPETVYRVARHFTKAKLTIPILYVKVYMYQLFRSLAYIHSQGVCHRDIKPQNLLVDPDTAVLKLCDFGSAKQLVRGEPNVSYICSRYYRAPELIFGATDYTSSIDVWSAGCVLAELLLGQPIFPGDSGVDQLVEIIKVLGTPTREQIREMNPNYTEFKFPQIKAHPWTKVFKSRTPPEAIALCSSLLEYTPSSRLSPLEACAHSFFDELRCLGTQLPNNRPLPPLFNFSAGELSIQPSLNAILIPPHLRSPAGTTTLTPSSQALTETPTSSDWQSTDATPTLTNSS

For orientation: IC50 means the concentration that inhibits the measured activity by half. With `COc1cc(Nc2nccc(Oc3ccc(NC(=O)Nc4cc(C(C)(C)C)nn4-c4ccc(C)cc4)c(Cl)c3Cl)n2)cc(S(=O)(=O)C2CC2)c1`, the IC50 was more than 10000 nM. The same measure for `COc1cc(N=S(C)(C)=O)cc(Nc2nccc(Oc3ccc(NC(=O)Nc4cc(C(C)C)nn4-c4ccc(C)cc4)c4ccccc34)n2)c1`: 824 nM.
